This note sets out measurements from US20240409556A1, “BENZOPIPERAZINE AND RELATED ANALOGS FOR INHIBITING YAP/TAZ-TEAD” (Springworks Therapeutics, Inc., priority 2023, published 2024).

SMILES strings stand for the structures. Bounds are passed on as bounds.

Usually IC50 stands for the concentration needed to halve the response being measured. The low end stands for inhibition by little substance, the high end for a need for much substance.

For one test, the system named is YAP/TAZ-TEAD transcription. Kind of test: Reporter gene assay for measuring the inhibition of YAP/TAZ-TEAD transcription (TEAD-responsive element luciferase reporter in Hek293T cells). As to conditions: 24 hours incubation. The class given is cell-based. The procedure, abridged:
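HEK293T cells transiently transfected with a TEAD-responsive luciferase reporter were exposed to compounds for 24 h at 37° C/5% CO2, then luminescence was read. Percent inhibition normalised to vehicle (0%) and positive-control inhibitor (100%); IC50 derived.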
(In a reporter assay the amount or activity of a reporter protein is the signal.)
Consider `C=CC(=O)N1CC2CN(c3ccc(C(F)(F)F)cc3)c3ccccc3N2CC1C(=O)O` (stereo not drawn) [compound 89, (cis)- or (trans)-3-acryloyl-6-(4-(trifluoromethyl)phenyl)-2,3,4,4a,5,6-hexahydro-1H-pyrazino[1,2-a]quinoxaline-2-carboxylic acid], for which the half-maximal inhibitory concentration (IC50) was less than 1000 nM.
Compound `CC(=O)N1CC2CN(c3ccc(C(F)(F)F)cc3)c3ccccc3N2CC1C(=O)O` (stereo not drawn) [compound 90, (cis)- or (trans)-3-acetyl-6-(4-(trifluoromethyl)phenyl)-2,3,4,4a,5,6-hexahydro-1H-pyrazino[1,2-a]quinoxaline-2-carboxylic acid] showed a half-maximal inhibitory concentration (IC50) of more than 10000 nM.
Same read-out and setting: with `CC(=O)N1CC2CN(c3ccc(C(F)(F)F)cc3)c3ccccc3N2CC1C(=O)O` (stereo not drawn) [compound 91, (cis)- or (trans)-3-acetyl-6-(4-(trifluoromethyl)phenyl)-2,3,4,4a,5,6-hexahydro-1H-pyrazino[1,2-a]quinoxaline-2-carboxylic acid] the figure was less than 1000 nM.

Staying with this test, now noted: Homo sapiens, HEK-293T, 24 h, 24 hours incubation.
For `CCc1ccc2c(n1)OC(CNC(C)=O)CN2c1ccc(C(F)(F)F)cc1` (centres unmarked) [compound 82, N-((6-ethyl-1-(4-(trifluoromethyl)phenyl)-2,3-dihydro-1H-pyrido[2,3-b][1,4]oxazin-3-yl)methyl)acetamide], the IC50 is less than 1000 nM.
Compound `COC(=O)N[C@@H]1C[C@@H]2CN(c3ccc(C(F)(F)F)cc3)c3cccnc3N2C1` [compound 83, methyl ((6aR,8R)-5-(4-(trifluoromethyl)phenyl)-5,6,6a,7,8,9-hexahydropyrido[3,2-e]pyrrolo[1,2-a]pyrazin-8-yl)carbamate] returned an IC50 of less than 1000 nM.
`CNC(=O)N[C@@H]1C[C@@H]2CN(c3ccc(C(F)(F)F)cc3)c3cccnc3N2C1` [compound 84, 1-methyl-3-((6aR,8R)-5-(4-(trifluoromethyl)phenyl)-5,6,6a,7,8,9-hexahydropyrido[3,2-e]pyrrolo[1,2-a]pyrazin-8-yl)urea] returned a 50% inhibitory concentration (IC50) of less than 1000 nM.
Still for that read-out and setting: with `CC(=O)NCC1CN(c2ccc(C(F)(F)F)cc2)c2ccc(N(C)C)nc2O1` (centres unmarked) [compound 87, N-((6-(dimethylamino)-1-(4-(trifluoromethyl)phenyl)-2,3-dihydro-1H-pyrido[2,3-b][1,4]oxazin-3-yl)methyl)acetamide] the figure was less than 1000 nM.
Same read-out and setting: as for `C=CC(=O)N1CC2CN(c3ccc(C(F)(F)F)cc3)c3ccccc3N2CC1C(=O)O` (stereo not drawn) [compound 88, (cis)- or (trans)-3-acryloyl-6-(4-(trifluoromethyl)phenyl)-2,3,4,4a,5,6-hexahydro-1H-pyrazino[1,2-a]quinoxaline-2-carboxylic acid], the figure is less than 1000 nM; as for `CNC(=O)O[C@@H]1C[C@@H]2CN(c3ccc(C(F)(F)F)cc3)c3cccnc3N2C1` [compound 92, (6aR,8R)-5-(4-(trifluoromethyl)phenyl)-5,6,6a,7,8,9-hexahydropyrido[3,2-e]pyrrolo[1,2-a]pyrazin-8-yl methylcarbamate], less than 1000 nM; as for `CC(=O)N[C@@H]1C[C@@H]2CN(c3ccc(C(F)(F)F)cc3)c3cc(C)cnc3N2C1` [compound 93, N-((6aR,8R)-3-methyl-5-(4-(trifluoromethyl)phenyl)-5,6,6a,7,8,9-hexahydropyrido[3,2-e]pyrrolo[1,2-a]pyrazin-8-yl)acetamide], less than 1000 nM.
On the same count and under the same terms, as for `O=C(O)CC(=O)N[C@@H]1C[C@@H]2CN(c3ccc(C(F)(F)F)cc3)c3cccnc3N2C1` [compound 94, 3-oxo-3-(((6aR,8R)-5-(4-(trifluoromethyl)phenyl)-5,6,6a,7,8,9-hexahydropyrido[3,2-e]pyrrolo[1,2-a]pyrazin-8-yl)amino)propanoic acid], the figure is 1000 to 10000 nM.
Consider `O=C(CO)N[C@@H]1C[C@@H]2CN(c3ccc(C(F)(F)F)cc3)c3cccnc3N2C1` [compound 95, 2-hydroxy-N-((6aR,8R)-5-(4-(trifluoromethyl)phenyl)-5,6,6a,7,8,9-hexahydropyrido[3,2-e]pyrrolo[1,2-a]pyrazin-8-yl)acetamide], for which the concentration for half-maximal inhibition (IC50) is less than 1000 nM.
Still for that read-out and setting: with `NCC(=O)N[C@@H]1C[C@@H]2CN(c3ccc(C(F)(F)F)cc3)c3cccnc3N2C1` [compound 97, 2-amino-N-((6aR,8R)-5-(4-(trifluoromethyl)phenyl)-5,6,6a,7,8,9-hexahydropyrido[3,2-e]pyrrolo[1,2-a]pyrazin-8-yl)acetamide] the figure was less than 1000 nM.
Turning to `CC(=O)N[C@@H]1C[C@@H]2CN(c3ccc(C(F)(F)F)cc3)c3cc(Cl)cnc3N2C1` [compound 98, N-((6aR,8R)-3-chloro-5-(4-(trifluoromethyl)phenyl)-5,6,6a,7,8,9-hexahydropyrido[3,2-e]pyrrolo[1,2-a]pyrazin-8-yl)acetamide], the IC50 is less than 1000 nM.
Same read-out and setting: as for `N#C[C@@H]1C[C@@H]2CN(c3ccc(C(F)(F)F)cc3)c3cccnc3N2C1` [compound 103, (6aR,8R)-5-(4-(trifluoromethyl)phenyl)-5,6,6a,7,8,9-hexahydropyrido[3,2-e]pyrrolo[1,2-a]pyrazine-8-carbonitrile], the figure is more than 10000 nM; as for `O=C(O)C1CCN2c3ccc(Cl)cc3N(c3ccc(C(F)(F)F)cc3)CC2C1` (stereo not drawn) [compound 104, (cis)- or (trans)-3-chloro-5-(4-(trifluoromethyl)phenyl)-6,6a,7,8,9,10-hexahydro-5H-pyrido[1,2-a]quinoxaline-8-carboxylic acid], 1000 to 10000 nM; as for `O=C(O)C1CCN2c3c(Cl)cccc3N(c3ccc(C(F)(F)F)cc3)CC2C1` (stereo not drawn) [compound 105, (cis)- or (trans)-1-chloro-5-(4-(trifluoromethyl)phenyl)-6,6a,7,8,9,10-hexahydro-5H-pyrido[1,2-a]quinoxaline-8-carboxylic acid], less than 1000 nM.
The compound `O=C(O)C1CCN2c3cc(Cl)ccc3N(c3ccc(C(F)(F)F)cc3)CC2C1` (stereo not drawn) [compound 106, (cis)- or (trans)-2-chloro-5-(4-(trifluoromethyl)phenyl)-6,6a,7,8,9,10-hexahydro-5H-pyrido[1,2-a]quinoxaline-8-carboxylic acid] displayed an IC50 of less than 1000 nM.
Still for that read-out and setting: as for `CC(=O)NCC1CN(c2ccc(C(F)(F)F)cc2)c2ccc(OC(F)F)nc2O1` (centres unmarked) [compound 108, N-((6-(difluoromethoxy)-1-(4-(trifluoromethyl)phenyl)-2,3-dihydro-1H-pyrido[2,3-b][1,4]oxazin-3-yl)methyl)acetamide], the figure is 1000 to 10000 nM.
Regarding `CC(C)(O)C(=O)N[C@@H]1C[C@@H]2CN(c3ccc(C(F)(F)F)cc3)c3cccnc3N2C1` [compound 110, 2-hydroxy-2-methyl-N-((6aR,8R)-5-(4-(trifluoromethyl)phenyl)-5,6,6a,7,8,9-hexahydropyrido[3,2-e]pyrrolo[1,2-a]pyrazin-8-yl)propanamide], the IC50 was less than 1000 nM.
The same measure, in the same setting: as for `O=C(O)C1CCN(c2ccccc2Nc2ccc(C(F)(F)F)cc2)CC1` [compound 111, 1-(2-((4-(trifluoromethyl)phenyl)amino)phenyl)piperidine-4-carboxylic acid], the figure is less than 1000 nM; as for `CC(=O)NCC1CN(c2ccc(C(F)(F)F)cc2)c2ccc(C(F)F)nc2O1` (centres unmarked) [compound 112, N-((6-(difluoromethyl)-1-(4-(trifluoromethyl)phenyl)-2,3-dihydro-1H-pyrido[2,3-b][1,4]oxazin-3-yl)methyl)acetamide], less than 1000 nM; as for `O=C(O)[C@H]1C[C@@H]2CN(c3ccc(C(F)(F)F)cc3)c3cccnc3N2C1` [compound 113, (6aR,8S)-5-(4-(trifluoromethyl)phenyl)-5,6,6a,7,8,9-hexahydropyrido[3,2-e]pyrrolo[1,2-a]pyrazine-8-carboxylic acid], 1000 to 10000 nM.
Still for that read-out and setting: as for `CC1(C(=O)O)CCN2c3ccccc3N(c3ccc(C(F)(F)F)cc3)CC2C1` (stereo not drawn) [compound 114, (cis)- or (trans)-8-methyl-5-(4-(trifluoromethyl)phenyl)-6,6a,7,8,9,10-hexahydro-5H-pyrido[1,2-a]quinoxaline-8-carboxylic acid], the figure is less than 1000 nM.
In turn, `CN(c1ccc(C(F)(F)F)cc1)c1ccccc1N1CCC(C(=O)O)CC1` [compound 118, 1-(2-(methyl(4-(trifluoromethyl)phenyl)amino)phenyl)piperidine-4-carboxylic acid] gave a 50% inhibitory concentration (IC50) of 1000 to 10000 nM.
`O=C(O)C1CCN(c2ccccc2Nc2ccc(C(F)(F)F)cc2)C(=O)C1` (centres unmarked) [compound 119, 2-oxo-1-(2-((4-(trifluoromethyl)phenyl)amino)phenyl)piperidine-4-carboxylic acid]: the IC50 was more than 10000 nM.
Still for that read-out and setting: as for `O=C(O)C1CCN(c2ccccc2Oc2ccc(C(F)(F)F)cc2)CC1` [compound 120, 1-(2-(4-(trifluoromethyl)phenoxy)phenyl)piperidine-4-carboxylic acid], the figure is less than 1000 nM.
The same measure, in the same setting: as for `O=C(O)C1CCN(c2ncccc2Nc2ccc(C(F)(F)F)cc2)CC1` [compound 124, 1-(3-((4-(trifluoromethyl)phenyl)amino)pyridin-2-yl)piperidine-4-carboxylic acid], the figure is less than 1000 nM; as for `Cc1ccc(Nc2ccc(C(F)(F)F)cc2)c(N2CCC(C(=O)O)CC2)n1` [compound 125, 1-(6-methyl-3-((4-(trifluoromethyl)phenyl)amino)pyridin-2-yl)piperidine-4-carboxylic acid], less than 1000 nM.
